Test results published in PubChem BioAssay AID330 (DTP/NCI, 2004).
Where “and” joins values, the source holds several entries; their conditions need not be identical. Equal values may be shown once. Inconclusive results and toxic doses are left out.

Test system: P388 leukemia ip, CD2F1 mice, survival T/C
Test: NCI In Vivo Anticancer Drug Screen. Data for tumor model P388 Leukemia (intraperitoneal) in CD2F1 (CDF1) mice
Settings: endpoint: median survival time, higher = longer survival
In short: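 Mice carrying the transplanted tumor received test compound or vehicle. Survival was recorded in each group, and the value is the treated-group measurement divided by that of the vehicle-treated control group.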

[1] = dose: 60.0 mg/kg/injection, schedule: Q01DX005 (ip), vehicle: Klucel (hydroxypropylcellulose) (HPC)
[2] = dose: 120.0 mg/kg/injection, schedule: Q01DX005 (ip), vehicle: Klucel (hydroxypropylcellulose) (HPC)
[3] = dose: 240.0 mg/kg/injection, schedule: Q01DX005 (ip), vehicle: Klucel (hydroxypropylcellulose) (HPC)
[4] = dose: 50.0 mg/kg/injection, schedule: Q01DX009 (ip), vehicle: Klucel (hydroxypropylcellulose) (HPC)
[5] = dose: 100.0 mg/kg/injection, schedule: Q01DX009 (ip), vehicle: Klucel (hydroxypropylcellulose) (HPC)
[6] = dose: 200.0 mg/kg/injection, schedule: Q01DX009 (ip), vehicle: Klucel (hydroxypropylcellulose) (HPC)
[7] = dose: 60.0 mg/kg/injection, schedule: Q01DX005 (ip), vehicle: saline with Tween-80
[8] = dose: 120.0 mg/kg/injection, schedule: Q01DX005 (ip), vehicle: saline with Tween-80
[9] = dose: 240.0 mg/kg/injection, schedule: Q01DX005 (ip), vehicle: saline with Tween-80
[10] = dose: 25.0 mg/kg/injection, schedule: Q01DX009 (ip), vehicle: saline with Tween-80
[11] = dose: 50.0 mg/kg/injection, schedule: Q01DX009 (ip), vehicle: saline with Tween-80
[12] = dose: 100.0 mg/kg/injection, schedule: Q01DX009 (ip), vehicle: saline with Tween-80
[13] = dose: 200.0 mg/kg/injection, schedule: Q01DX009 (ip), vehicle: saline with Tween-80
[14] = dose: 50.0 mg/kg/injection, schedule: Q01DX005 (ip), vehicle: saline with Tween-80
[15] = dose: 100.0 mg/kg/injection, schedule: Q01DX005 (ip), vehicle: saline with Tween-80
[16] = dose: 200.0 mg/kg/injection, schedule: Q01DX005 (ip), vehicle: saline with Tween-80

SMILES: CN1CCCN(C)C1c1ccccc1O
- T/C (dose: 12.5 mg/kg/injection, schedule: Q01DX009 (ip), vehicle: saline sonified): 100 % of control
- T/C (dose: 25.0 mg/kg/injection, schedule: Q01DX009 (ip), vehicle: saline sonified): 90 % of control
- T/C (dose: 50.0 mg/kg/injection, schedule: Q01DX009 (ip), vehicle: saline sonified): 100 % of control

SMILES: CN1N(C)P(=S)(Oc2ccccc2)N(C)N(C)P1(=S)Oc1ccccc1 (stereo not drawn)
- T/C [1]: 98 % of control
- T/C [2]: 98 % of control
- T/C [3]: 93 % of control

SMILES: COc1cccc2c1C(=O)c1c(O)c3c(c(O)c1C2=O)CC(O)(/C(C)=N/NC(=O)CCCCCCCCC(=O)N/N=C(\C)C1(O)Cc2c(O)c4c(c(O)c2C(OC2CC(N)C(O)C(C)O2)C1)C(=O)c1c(OC)cccc1C4=O)CC3OC1CC(N)C(O)C(C)O1 (stereo not drawn)
- T/C (dose: 3.13 mg/kg/injection, schedule: Q01DX009 (ip), vehicle: water): 155 % of control
- T/C (dose: 6.25 mg/kg/injection, schedule: Q01DX009 (ip), vehicle: water): 174 % of control
- T/C (dose: 12.5 mg/kg/injection, schedule: Q01DX009 (ip), vehicle: water): 221 % of control
- T/C (dose: 25.0 mg/kg/injection, schedule: Q01DX009 (ip), vehicle: water): 99 % of control

SMILES: CCOC(=O)CC1C(=O)N(c2nc(-c3ccc(Br)cc3)cs2)N=C1C (stereo not drawn)
- T/C [4]: 96 % of control
- T/C [5]: 101 % of control
- T/C [6]: 103 % of control

SMILES: CCc1cc(-c2cc(CC)nc(N)n2)nc(N)n1
- T/C (dose: 60.0 mg/kg/injection, schedule: Q01DX005 (ip), vehicle: saline): 97 % of control
- T/C (dose: 120.0 mg/kg/injection, schedule: Q01DX005 (ip), vehicle: saline): 104 % of control
- T/C (dose: 240.0 mg/kg/injection, schedule: Q01DX005 (ip), vehicle: saline): 100 % of control

SMILES: N/N=C1/C(=O)N(c2ccc(S(N)(=O)=O)cc2)C(=O)C1C(=O)Nc1ccc(S(N)(=O)=O)cc1 (stereo not drawn)
- T/C [7]: 114 % of control
- T/C [8]: 101 % of control
- T/C [9]: 106 % of control

SMILES: C#CC(O)(c1ccccc1)c1ccc(N2CCOCC2)cc1 (stereo not drawn)
- T/C [10]: 95 % of control
- T/C [11]: 98 % of control
- T/C [12]: 98 % of control
- T/C [13]: 97 % of control

SMILES: CCCCCCC(=O)/C=C/c1cc(Cl)cc(Cl)c1OCOC
- T/C [5]: 116 % of control
- T/C [6]: 100 % of control

SMILES: COc1cc(NC(C)CCCNC(C)C)c2ncccc2c1 (stereo not drawn)
- T/C (dose: 6.25 mg/kg/injection, schedule: Q01DX005 (ip), vehicle: saline with Tween-80): 100 % of control
- T/C (dose: 12.5 mg/kg/injection, schedule: Q01DX005 (ip), vehicle: saline with Tween-80): 100 % of control

SMILES: COC(=O)C1Cc2c([nH]c3ccccc23)C2CCC(=O)N12 (stereo not drawn)
- T/C [4]: 108 % of control
- T/C [5]: 100 % of control
- T/C [6]: 104 % of control

SMILES: C[Se]C(C)(C)C(O)(Cc1ccccc1)c1ccccc1 (stereo not drawn)
- T/C (dose: 25.0 mg/kg/injection, schedule: Q04DX002 (ip), vehicle: saline with Tween-80): 88 % of control
- T/C (dose: 50.0 mg/kg/injection, schedule: Q04DX002 (ip), vehicle: saline with Tween-80): 94 % of control
- T/C (dose: 100.0 mg/kg/injection, schedule: Q04DX002 (ip), vehicle: saline with Tween-80): 101 % of control

SMILES: CCOC(=O)c1ccc(N=Nc2c(O)c(C(=O)OCC)c(O)c3ccccc23)cc1O
- T/C (dose: 100.0 mg/kg/injection, schedule: Q01DX001 (ip), vehicle: distilled water + alcohol): 91 % of control
- T/C (dose: 200.0 mg/kg/injection, schedule: Q01DX001 (ip), vehicle: distilled water + alcohol): 86 % of control
- T/C (dose: 400.0 mg/kg/injection, schedule: Q01DX001 (ip), vehicle: distilled water + alcohol): 86 % of control

SMILES: NC(=O)C1CC2(c3ccccn3)c3ccccc3C1c1ccccc12 (stereo not drawn)
- T/C (dose: 50.0 mg/kg/injection, schedule: Q01DX005 (ip), vehicle: Klucel (hydroxypropylcellulose) (HPC)): 96 % of control
- T/C (dose: 100.0 mg/kg/injection, schedule: Q01DX005 (ip), vehicle: Klucel (hydroxypropylcellulose) (HPC)): 90 % of control
- T/C (dose: 200.0 mg/kg/injection, schedule: Q01DX005 (ip), vehicle: Klucel (hydroxypropylcellulose) (HPC)): 88 % of control

SMILES: O=C(NC(Cc1ccc(Br)cc1)C(=O)O)c1cccc(Cl)c1 (stereo not drawn)
- T/C (dose: 50.0 mg/kg/injection, schedule: Q01DX005 (ip), vehicle: saline): 100 % of control
- T/C (dose: 100.0 mg/kg/injection, schedule: Q01DX005 (ip), vehicle: saline): 101 % of control

SMILES: NC(=O)C[C@H](NP(=S)(c1ccccc1)c1ccccc1)C(=O)O
- T/C [4]: 102 % of control
- T/C [5]: 98 % of control
- T/C [6]: 110 % of control

SMILES: CCCCOC(=O)CSSCC(=O)OCCCC
- T/C (dose: 50.0 mg/kg/injection, schedule: Q04DX003 (ip), vehicle: saline with Tween-80): 109 % of control
- T/C (dose: 100.0 mg/kg/injection, schedule: Q04DX003 (ip), vehicle: saline with Tween-80): 109 % of control
- T/C (dose: 200.0 mg/kg/injection, schedule: Q04DX003 (ip), vehicle: saline with Tween-80): 109 % of control

SMILES: C=C(C)/C([O-])=N/[N+](C)(C)CC(O)CCCCCCCCCCCC (stereo not drawn)
- T/C (dose: 1.25 mg/kg/injection, schedule: Q01DX009 (ip), vehicle: Klucel (hydroxypropylcellulose) (HPC)): 104 % of control
- T/C (dose: 2.5 mg/kg/injection, schedule: Q01DX005 (ip), vehicle: Klucel (hydroxypropylcellulose) (HPC)): 100 % of control
- T/C (dose: 2.5 mg/kg/injection, schedule: Q01DX009 (ip), vehicle: Klucel (hydroxypropylcellulose) (HPC)): 96 % of control
- T/C (dose: 5.0 mg/kg/injection, schedule: Q01DX005 (ip), vehicle: Klucel (hydroxypropylcellulose) (HPC)): 101 % of control
- T/C (dose: 10.0 mg/kg/injection, schedule: Q01DX005 (ip), vehicle: Klucel (hydroxypropylcellulose) (HPC)): 100 % of control
- T/C (dose: 10.0 mg/kg/injection, schedule: Q01DX009 (ip), vehicle: Klucel (hydroxypropylcellulose) (HPC)): 91 % of control
- T/C (dose: 20.0 mg/kg/injection, schedule: Q01DX005 (ip), vehicle: Klucel (hydroxypropylcellulose) (HPC)): 101 % of control
- T/C (dose: 40.0 mg/kg/injection, schedule: Q01DX005 (ip), vehicle: Klucel (hydroxypropylcellulose) (HPC)): 92 % of control

SMILES: COc1ccc2cc(Cl)c3ccccc3c2c1
- T/C [14]: 87 % of control
- T/C [15]: 90 % of control
- T/C [16]: 86 % of control

SMILES: CC(=O)Nc1ccc(S(=O)(=O)N/N=C/c2cc([N+](=O)[O-])cc(I)c2O)cc1
- T/C [7]: 93 % of control
- T/C [8]: 97 % of control
- T/C [9]: 103 % of control

SMILES: CC1(C)OC2C(CO)OC(n3ccc(=O)[nH]c3=O)C2O1 (stereo not drawn)
- T/C (dose: 6.25 mg/kg/injection, schedule: Q01DX009 (ip), vehicle: saline with Tween-80): 107 % of control
- T/C (dose: 12.5 mg/kg/injection, schedule: Q01DX009 (ip), vehicle: saline with Tween-80): 109 % of control
- T/C [10]: 100 % of control and 110 % of control and 120 % of control
- T/C [11]: 108 % of control and 92 % of control and 97 % of control
- T/C [12]: 90 % of control

SMILES: O=S(=O)(CS(=O)(=O)c1ccc(Br)cc1)c1ccc(Br)cc1
- T/C [1]: 102 % of control
- T/C [2]: 107 % of control
- T/C [3]: 102 % of control

SMILES: CCNC(=O)/C=C/c1cccc(Br)c1
- T/C [14]: 105 % of control
- T/C [15]: 105 % of control
- T/C [16]: 98 % of control

SMILES: Fc1ccc(CSc2ncnc3nc[nH]c23)cc1
- T/C [12]: 90 % of control
- T/C [13]: 100 % of control
- T/C (dose: 400.0 mg/kg/injection, schedule: Q01DX009 (ip), vehicle: saline with Tween-80): 100 % of control

SMILES: O=S1(=O)C2CCC(Br)C1CCC2Br (stereo not drawn)
- T/C (dose: 1.56 mg/kg/injection, schedule: Q01DX005 (ip), vehicle: Klucel (hydroxypropylcellulose) (HPC)): 99 % of control
- T/C (dose: 3.12 mg/kg/injection, schedule: Q01DX005 (ip), vehicle: Klucel (hydroxypropylcellulose) (HPC)): 103 % of control
- T/C (dose: 6.25 mg/kg/injection, schedule: Q01DX005 (ip), vehicle: Klucel (hydroxypropylcellulose) (HPC)): 100 % of control

SMILES: CC(=O)c1oc2cc([N+](=O)[O-])c3ccccc3c2c1C
- T/C [7]: 107 % of control
- T/C [8]: 98 % of control
- T/C [9]: 88 % of control

SMILES: C1CCN(CN2CCCCC2)CC1
- T/C (dose: 50.0 mg/kg/injection, schedule: Q01DX009 (ip), vehicle: saline): 104 % of control
- T/C (dose: 100.0 mg/kg/injection, schedule: Q01DX009 (ip), vehicle: saline): 108 % of control
